Measured values reported in article PMC8214221, “Sequence determinants in the cathelicidin LL-37 that promote inflammation via presentation of RNA to scavenger receptors” (The Journal of Biological Chemistry, 2021).
Residues, ends and D or L forms follow the SMILES beside them.

Experiments:
[1] = tested on: NHEKs, IL-6 secretion in response to U1 dsRNA; test: IL-6 secretion ELISA in NHEKs; type: cell-based, human; details: U1 dsRNA 2.5 μg/ml + peptide 2 μM, 18 h, n = 3
Procedure: Protein levels of human IL-6 were analyzed from cell supernatant with ELISA (n = 3). Corresponding MIC values of LL-34 peptides L1A–R34A against Staphylococcus aureus USA300 are shown in the heat map. B, human dermal endothelial cells (HDMECs) were treated with either U1 dsRNA (2.5 μg/ml) or a combination of U1 dsRNA (2.5 μg/ml) and LL-34 peptides (Pep 1–Pep 34 and Pep–parent LL-34) at 2 μM for 18 h. IL-6 ELISA results are shown (n = 3). Green bars denote loss of IL-6 protein secretion compared with parent control shown in red. C, helical wheel plot for LL-34. Amino acids with green circles denote specific residues where replacement with an alanine caused the loss of IL-6 secretion compared with parent LL-34 peptide in NHEKs cotreated with U1 dsRNA. D, in the helical wheel plot for LL-34, circled green amino acids indicate that a substitution caused a loss of vetting in HDMEC. E–H, NHEKs were treated with LL-34-parent peptide (LL-34-P), LL-34-F5A, LL-34-I24A, LL-34-F27A, and LL-34-L31A at 2 μM, either individually or in combination with U1 dsRNA (2.5 μg/ml) for 8 h. Gene expression of IL-6, IFNB1, TSLP, and CXCL10 was assessed with qRT-PCR. GAPDH was used as a reference gene (n = 3) (∗p < 0.05; ∗∗∗∗p < 0.0001). One way-ANOVA was used. IL-6, interleukin 6; LL-34, 34-amino acid peptide; MIC, minimum inhibitory concentration, ns, not significant.
We hypothesized that sequential replacement of each amino acid in LL-34 peptide with a neutral amino acid alanine might reveal the amino acid residues critical for its ability to induce inflammation in response to U1 dsRNA. First, we treated NHEKs and human dermal microvascular endothelial cells (HDMECs) with LL-34 parent peptide and each of the 34 mutants at 2 μM for 18 h and measured the secretion of interleukin 6 (IL-6) in the supernatant by ELISA (Fig. S1, A and B). […] We then treated both NHEKs and HDMECs with a combination of U1 dsRNA (2.5 μg/ml) and the LL-34 parent/mutant peptides at 2 μM for 18 h and measured IL-6 secretion (Fig. 1, A–C). […] A similar pattern of IL-6 release was observed when HDMECs were treated with the peptide library and U1 dsRNA (Fig. 1B).
Cell culture supernatant was frozen at −80 °C until use for analysis. ELISA was performed with sandwich ELISA kits (R&D Systems) and quantified on a Spectramax Absorbance reader (Molecular Biosystems). Data were analyzed with GraphPad.

[2] = tested on: normal human epidermal keratinocytes (NHEKs); test: LDH release cytotoxicity assay in keratinocytes; type: cell-based; details: minimal concentration giving 50% LDH release by NHEKs
Outline: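 Normal human epidermal keratinocytes were exposed to LL-34 parent and alanine-substituted peptides. Cytotoxicity was read as LDH release in fresh culture supernatants after treatment, using a commercial kit, and reported as the minimal concentration showing toxicity.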

| SMILES | IL-6 protein secretion, cotreatment with U1 dsRNA, vs U1 dsRNA + LL-34 parent [1] | Minimal cytotoxic concentration in NHEK (LD50) [2] [µM] |
| --- | --- | --- |
| CC[C@H](C)[C@H](NC(=O)[C@H](CCCCN)NC(=O)[C@H](CCC(=O)O)NC(=O)[C@H](CCCCN)NC(=O)[C@H](CO)NC(=O)[C@H](CCCCN)NC(=O)[C@H](CCCNC(=N)N)NC(=O)[C@H](C)NC(=O)[C@H](Cc1ccccc1)NC(=O)[C@H](CC(=O)O)NC(=O)CNC(=O)[C@H](CC(C)C)NC(=O)[C@@H](N)CC(C)C)C(=O)NCC(=O)N[C@@H](CCCCN)C(=O)N[C@@H](CCC(=O)O)C(=O)N[C@@H](Cc1ccccc1)C(=O)N[C@@H](CCCCN)C(=O)N[C@@H](CCCNC(=N)N)C(=O)N[C@H](C(=O)N[C@H](C(=O)N[C@@H](CCC(N)=O)C(=O)N[C@@H](CCCNC(=N)N)C(=O)N[C@H](C(=O)N[C@@H](CCCCN)C(=O)N[C@@H](CC(=O)O)C(=O)N[C@@H](Cc1ccccc1)C(=O)N[C@@H](CC(C)C)C(=O)N[C@@H](CCCNC(=N)N)C(=O)N[C@@H](CC(N)=O)C(=O)N[C@@H](CC(C)C)C(=O)N[C@H](C(=O)N1CCC[C@H]1C(=O)N[C@@H](CCCNC(=N)N)C(=O)O)C(C)C)[C@@H](C)CC)C(C)C)[C@@H](C)CC [LL-34—F6A] (H-LLGDFARKSKEKIGKEFKRIVQRIKDFLRNLVPR-OH) | reduced secretion of IL-6 protein | 5 |
| CC[C@H](C)[C@H](NC(=O)[C@H](CCCCN)NC(=O)[C@H](CCC(=O)O)NC(=O)[C@H](CCCCN)NC(=O)[C@H](CO)NC(=O)[C@H](CCCCN)NC(=O)[C@H](CCCNC(=N)N)NC(=O)[C@H](Cc1ccccc1)NC(=O)[C@H](Cc1ccccc1)NC(=O)[C@H](CC(=O)O)NC(=O)CNC(=O)[C@H](CC(C)C)NC(=O)[C@@H](N)CC(C)C)C(=O)NCC(=O)N[C@@H](CCCCN)C(=O)N[C@@H](CCC(=O)O)C(=O)N[C@@H](Cc1ccccc1)C(=O)N[C@@H](CCCCN)C(=O)N[C@@H](CCCNC(=N)N)C(=O)N[C@H](C(=O)N[C@H](C(=O)N[C@@H](CCC(N)=O)C(=O)N[C@@H](CCCNC(=N)N)C(=O)N[C@H](C(=O)N[C@@H](CCCCN)C(=O)N[C@@H](CC(=O)O)C(=O)N[C@@H](Cc1ccccc1)C(=O)N[C@@H](CC(C)C)C(=O)N[C@@H](CCCNC(=N)N)C(=O)N[C@@H](CC(N)=O)C(=O)N[C@@H](CC(C)C)C(=O)N[C@@H](C)C(=O)N1CCC[C@H]1C(=O)N[C@@H](CCCNC(=N)N)C(=O)O)[C@@H](C)CC)C(C)C)[C@@H](C)CC [LL-34—V32A] (H-LLGDFFRKSKEKIGKEFKRIVQRIKDFLRNLAPR-OH) | reduced secretion of IL-6 protein | 10 |
